Tested on: 926638-142-R-J1-PDC complex spheroid viability
Test: Anticancer human tumor 926638-142-R-J1-PDC patient-derived endometrial carcinoma cell line growth inhibition [POLQ]
Details: for IC50: curve of first compound; for viability, T/C: stronger effect = lower value
Experimental: Multicellular complex tumor spheroid response to Polymerase (POL) inhibitors (novobiocin, ART-558, RP6685) in combination with a variety of drugs and investigational agents in selected tumor cell lines
The POL inhibitors (novobiocin, ART-558, and RP6685) were evaluated both individually and in combination with standard of care and investigational anticancer small molecules within a complex spheroid model of solid tumors. . Complex spheroids include a stromal component modeled by human endothelial cells (HUVEC) and fibroblasts modeled by human mesenchymal stem cells (MSCs). The concentration ranges selected for each drug and investigational agent were based upon clinically achievable concentrations if the clinical Cmax of the agent was known.
Compounds. The drugs and investigational agents: novobiocin (NSC847541), ART-558 (NSC835418), RP-6685 (NSC848927), peposertib (NSC802822), ceralasertib (NSC780249), elimusertib (NSC800525), camonsertib (NSC841442), AZD-1390 (NSC803789), olaparib (NSC753686), talazoparib (NSC767125), rucaparib (NSC756644), sotorasib (NSC818433), MRTX-1133 (NSC836407), SN-38 (NSC673596), topotecan (NSC609699), epotoside (NSC141540), doxorubicin (NSC123127), gemcitabine (NSC613327), 5-fluorouracil (NSC19893), paclitaxel (NSC125973), vemurafenib (NSC761431), MSA-2 (NSC828583), SN-011 (NSC837082), adavosertib (NSC754352), prexasertib (NSC758257), carboplatin (NSC241240) and oxaliplatin (NSC266046), were obtained from the National Cancer Institute (NCI) Developmental Therapeutics Program Chemical Repository (21). The FDA-approved anticancer drug set is available from the Developmental Therapeutics Program at https://dtp.cancer.gov/organization/dscb/obtaining/. […] The stock solutions were prepared in dimethyl sulfoxide (DMSO, Sigma-Aldrich, St. Louis, MO, cat. D2650), except for the platinum compounds which were prepared in saline (Quality Biological, Gaithersburg, MD, cat. 114-055-101), at 800-fold the tested concentration and stored at -70 degrees C prior to their use. All drugs and investigational agents were tested over a range starting from a high concentration at or near the clinical Cmax and decreasing in half-log increments. If the clinical Cmax for an agent had not been determined, the highest concentration tested was 10 microM, except for SN-38, which was tested at a high concentration of 1 microM.
Cell Culture. All cells were maintained in an incubator at 37 degrees C and 5% CO2 with 95% humidity. The PDC lines were cultured according to standard operating procedures established by the NCI PDMR (https://pdmr.cancer.gov). Table 3 of the manuscript, lists the cell lines along with the number of the three cell types plated to form the mct-spheroids and media for tumor cell growth. After thawing, all PDC lines, except 997537-175-T-J1-PDC and 415267-285-R-J2-PDC, were cultured in Matrigel-coated flasks prepared with a working solution of 1X Ham's F-12 nutrient mix, without supplementation (Thermo Fisher Scientific, cat. 11765054), 100 U/mL penicillin-streptomycin (Thermo Fisher Scientific, cat. 15140122), and 2.5% Matrigel (Corning Inc., Corning, NY, cat. 354248) for the first three passages. The two PDC lines 997537-175-T-J1-PDC and 415267-285-R-J2-PDC were cultured on uncoated flasks. The 857933-349-R-J2-PDC line was cultured in 6C/Colon 1B media containing advanced DMEM/F-12 (Thermo Fisher Scientific, cat. 12634028), 10 mM HEPES (Thermo Fisher Scientific, cat. 15630080), 1X GlutaMAX supplement (Thermo Fisher Scientific, cat. 35050061), 0.1 mg/mL primocin (InvivoGen, San Diego, CA, cat. ant-pm-2), 10% defined fetal bovine serum, heat inactivated (HyClone Laboratories Inc., Logan, UT, cat. SH30070.03HI), 50% L-WRN conditioned media (ATCC, cat. CRL-3276), 1.25 mM N-Acetyl-L-cysteine (Sigma-Aldrich, cat. A9165), 10 mM nicotinamide (Sigma-Aldrich, cat. N0636), 1X B-27 supplement (Thermo Fisher Scientific, cat. 17504044), 1X N-2 supplement (Thermo Fisher Scientific, cat. […]

[1] = second compound 0.0316 µM, first compound 0.0316 µM
[2] = second compound 0.0316 µM, first compound 0.1 µM
[3] = second compound 0.1 µM, first compound 0.0316 µM
[4] = second compound 0.1 µM, first compound 0.1 µM
[5] = second compound 0.316 µM, first compound 0.0316 µM
[6] = second compound 0.316 µM, first compound 0.1 µM
[7] = second compound 1 µM, first compound 0.0316 µM
[8] = second compound 1 µM, first compound 0.1 µM
[9] = second compound 3.16 µM, first compound 0.0316 µM
[10] = second compound 3.16 µM, first compound 0.1 µM
[11] = second compound 10 µM, first compound 0.0316 µM
[12] = second compound 10 µM, first compound 0.1 µM
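Also: spheroids exposed to drugs for one week before readout.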
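For viability, T/C in this document: percent viability relative to DMSO vehicle control wells set as 100%.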

## CC1COCCN1c1cc(C2(O)CC3CCC(C2)O3)c2cnn(-c3ccn[nH]3)c2n1 (centres undefined) + COC1C(OC(N)=O)C(O)C(Oc2ccc3c(O)c(NC(=O)c4ccc(O)c(CC=C(C)C)c4)c(=O)oc3c2C)OC1(C)C
Second compound 0.0316 µM
  IC50: 212 nM
Second compound 0.1 µM
  IC50: 204 nM
Second compound 0.316 µM
  IC50: 200 nM
Second compound 1 µM
  IC50: 217 nM
Second compound 3.16 µM
  IC50: 222 nM
Second compound 10 µM
  IC50: 181 nM
[1]
  viability, T/C: 106%
[2]
  viability, T/C: 74.5%
Second compound 0.0316 µM, first compound 0.316 µM
  viability, T/C: 35.6%
Second compound 0.0316 µM, first compound 1 µM
  viability, T/C: 17.5%
Second compound 0.0316 µM, first compound 3.16 µM
  viability, T/C: 7.23%
Second compound 0.0316 µM, first compound 10 µM
  viability, T/C: 1.82%
[3]
  viability, T/C: 108%
[4]
  viability, T/C: 64.9%
Second compound 0.1 µM, first compound 0.316 µM
  viability, T/C: 46%
Second compound 0.1 µM, first compound 1 µM
  viability, T/C: 12.8%
Second compound 0.1 µM, first compound 3.16 µM
  viability, T/C: 6.56%
Second compound 0.1 µM, first compound 10 µM
  viability, T/C: 1.94%
[5]
  viability, T/C: 102%
[6]
  viability, T/C: 69.1%
Second compound 0.316 µM, first compound 0.316 µM
  viability, T/C: 37.4%
Second compound 0.316 µM, first compound 1 µM
  viability, T/C: 16.5%
Second compound 0.316 µM, first compound 3.16 µM
  viability, T/C: 7.59%
Second compound 0.316 µM, first compound 10 µM
  viability, T/C: 1.6%
[7]
  viability, T/C: 86.9%
[8]
  viability, T/C: 75.8%
Second compound 1 µM, first compound 0.316 µM
  viability, T/C: 36.8%
Second compound 1 µM, first compound 1 µM
  viability, T/C: 12.9%
Second compound 1 µM, first compound 3.16 µM
  viability, T/C: 7.07%
Second compound 1 µM, first compound 10 µM
  viability, T/C: 1.87%
[9]
  viability, T/C: 90.5%
[10]
  viability, T/C: 77.7%
Second compound 3.16 µM, first compound 0.316 µM
  viability, T/C: 36.5%
Second compound 3.16 µM, first compound 1 µM
  viability, T/C: 15%
Second compound 3.16 µM, first compound 3.16 µM
  viability, T/C: 6.73%
Second compound 3.16 µM, first compound 10 µM
  viability, T/C: 2%
[11]
  viability, T/C: 91.4%
[12]
  viability, T/C: 69.4%
Second compound 10 µM, first compound 0.316 µM
  viability, T/C: 31.1%
Second compound 10 µM, first compound 1 µM
  viability, T/C: 13%
Second compound 10 µM, first compound 3.16 µM
  viability, T/C: 7.88%
Second compound 10 µM, first compound 10 µM
  viability, T/C: 1.74%

## CC[C@@]1(O)C(=O)OCc2c1cc1n(c2=O)Cc2cc3c(CN(C)C)c(O)ccc3nc2-1 + Cc1cccc(N(C)C(=O)C2C(O)CCN2c2nc(C)cc(C(F)(F)F)c2C#N)c1
Second compound 0.0316 µM
  IC50: 68.9 nM
Second compound 0.1 µM
  IC50: 74.9 nM
Second compound 0.316 µM
  IC50: 73.8 nM
Second compound 1 µM
  IC50: > 100 nM
Second compound 3.16 µM
  IC50: > 100 nM
Second compound 10 µM
  IC50: > 100 nM
Second compound 0.0316 µM, first compound 0.000316 µM
  viability, T/C: 100%
Second compound 0.0316 µM, first compound 0.001 µM
  viability, T/C: 91.2%
Second compound 0.0316 µM, first compound 0.00316 µM
  viability, T/C: 74.6%
Second compound 0.0316 µM, first compound 0.01 µM
  viability, T/C: 70.4%
[1]
  viability, T/C: 63.1%
[2]
  viability, T/C: 43.4%
Second compound 0.1 µM, first compound 0.000316 µM
  viability, T/C: 86.4%
Second compound 0.1 µM, first compound 0.001 µM
  viability, T/C: 94.6%
Second compound 0.1 µM, first compound 0.00316 µM
  viability, T/C: 87.9%
Second compound 0.1 µM, first compound 0.01 µM
  viability, T/C: 76.8%
[3]
  viability, T/C: 64.7%
[4]
  viability, T/C: 45.2%
Second compound 0.316 µM, first compound 0.000316 µM
  viability, T/C: 94.3%
Second compound 0.316 µM, first compound 0.001 µM
  viability, T/C: 88.9%
Second compound 0.316 µM, first compound 0.00316 µM
  viability, T/C: 70.4%
Second compound 0.316 µM, first compound 0.01 µM
  viability, T/C: 76.3%
[5]
  viability, T/C: 57.4%
[6]
  viability, T/C: 46.3%
Second compound 1 µM, first compound 0.000316 µM
  viability, T/C: 93.7%
Second compound 1 µM, first compound 0.001 µM
  viability, T/C: 74%
Second compound 1 µM, first compound 0.00316 µM
  viability, T/C: 88.8%
Second compound 1 µM, first compound 0.01 µM
  viability, T/C: 68.3%
[7]
  viability, T/C: 68%
[8]
  viability, T/C: 50.4%
Second compound 3.16 µM, first compound 0.000316 µM
  viability, T/C: 78.3%
Second compound 3.16 µM, first compound 0.001 µM
  viability, T/C: 99%
Second compound 3.16 µM, first compound 0.00316 µM
  viability, T/C: 80.7%
Second compound 3.16 µM, first compound 0.01 µM
  viability, T/C: 63%
[9]
  viability, T/C: 61.2%
[10]
  viability, T/C: 47%
Second compound 10 µM, first compound 0.000316 µM
  viability, T/C: 97.9%
Second compound 10 µM, first compound 0.001 µM
  viability, T/C: 71.1%
Second compound 10 µM, first compound 0.00316 µM
  viability, T/C: 75.7%
Second compound 10 µM, first compound 0.01 µM
  viability, T/C: 68%
[11]
  viability, T/C: 62.2%
[12]
  viability, T/C: 47.5%

From PubChem BioAssay AID1963826 (Molecular Pharmacology Branch, DTP, NCI, 2024)
